Measurements reported in ChEMBL document CHEMBL1201862, “PubChem BioAssay data set” (2004).
Active and inactive are the calls of the source.

Key:
Procathepsin L = Procathepsin L (Homo sapiens, UniProt P07711)
Aspartyl aminopeptidase = Aspartyl aminopeptidase (Plasmodium falciparum 3D7, UniProt Q8I2J3)
[1] = target: T1, Dual specificity protein phosphatase 3 (Homo sapiens, UniProt P51452); experiment: SAR VHR1 Fluorescent Assay for In Vitro dose response studies. [Related pubchem assays (depositor defined):AID1654, AID1661, AID1878, AID1992, AID2004, AID2070, AID2085]; assay type: functional
[2] = target: T2, Rac GTPase-activating protein 1 (Homo sapiens, UniProt Q9H0H5); experiment: MgcRacGAP GTPase-activating activity inhibitors, confirmation, biochemical, ADP Hunter fluorescence, primary and confirmatory (AID 624330); assay type: functional
T2 sequence (Q9H0H5 whole entry): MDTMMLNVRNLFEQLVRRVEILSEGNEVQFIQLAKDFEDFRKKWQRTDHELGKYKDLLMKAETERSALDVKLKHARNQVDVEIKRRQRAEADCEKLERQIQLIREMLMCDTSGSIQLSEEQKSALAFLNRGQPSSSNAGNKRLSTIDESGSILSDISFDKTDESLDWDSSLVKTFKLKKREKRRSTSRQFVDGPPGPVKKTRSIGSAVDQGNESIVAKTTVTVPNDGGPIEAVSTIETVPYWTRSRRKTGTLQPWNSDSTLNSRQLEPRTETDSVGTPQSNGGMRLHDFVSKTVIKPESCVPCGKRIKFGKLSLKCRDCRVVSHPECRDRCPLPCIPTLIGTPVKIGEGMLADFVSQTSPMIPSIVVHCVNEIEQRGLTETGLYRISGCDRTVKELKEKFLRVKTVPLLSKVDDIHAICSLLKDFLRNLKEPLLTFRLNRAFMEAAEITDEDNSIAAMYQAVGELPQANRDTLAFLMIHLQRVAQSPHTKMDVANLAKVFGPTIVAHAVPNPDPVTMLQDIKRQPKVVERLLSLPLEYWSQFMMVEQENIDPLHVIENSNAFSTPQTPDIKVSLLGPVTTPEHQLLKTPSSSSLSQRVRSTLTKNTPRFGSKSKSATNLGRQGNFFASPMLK

[3] = target: Dual specificity protein phosphatase 6 (Rattus norvegicus, UniProt Q64346); assay type: functional;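 further: confirmatory in vitro dose-response testing of MKP-3 inhibition; recombinant His-tagged MKP-3 made in E. coli BL21 with OMFP substrate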
[4] = target: T3, Tyrosine-protein phosphatase non-receptor type 7 (Homo sapiens, UniProt P35236); experiment: redox-dependent HePTP inhibition, mechanism study, biochemical, fluorescence (AID 2068); assay type: functional
T3 sequence (P35236 whole entry): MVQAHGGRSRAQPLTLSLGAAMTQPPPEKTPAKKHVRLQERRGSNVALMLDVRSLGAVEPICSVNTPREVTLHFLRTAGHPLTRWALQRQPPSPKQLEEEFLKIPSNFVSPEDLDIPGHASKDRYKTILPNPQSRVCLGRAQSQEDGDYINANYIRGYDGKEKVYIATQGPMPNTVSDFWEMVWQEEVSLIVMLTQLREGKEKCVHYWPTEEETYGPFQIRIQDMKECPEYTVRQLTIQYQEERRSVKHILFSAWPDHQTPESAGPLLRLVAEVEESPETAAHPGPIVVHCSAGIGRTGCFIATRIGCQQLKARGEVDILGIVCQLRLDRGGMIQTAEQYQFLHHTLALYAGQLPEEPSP

[5] = target: T1, Dual specificity protein phosphatase 3; experiment: MOA VHR1 Fluorescent secondary assay for identification of redox-state modulating compounds. [Related pubchem assays (depositor defined):AID1654, AID1661, AID1878, AID1957]
[6] = target: T1, Dual specificity protein phosphatase 3; experiment: SAR VHR1 absorbance Assay for In Vitro dose response studies. [Related pubchem assays (depositor defined):AID1654, AID1661, AID1878, AID1992, AID2004]
Hexokinase HKDC1 = target: T4, Hexokinase HKDC1 (Homo sapiens, UniProt Q2TB90); experiment: HKDC1 hexokinase inhibitors, dose response, biochemical, W721R variant (AID 504729); assay type: functional
T4 sequence (Q2TB90 whole entry): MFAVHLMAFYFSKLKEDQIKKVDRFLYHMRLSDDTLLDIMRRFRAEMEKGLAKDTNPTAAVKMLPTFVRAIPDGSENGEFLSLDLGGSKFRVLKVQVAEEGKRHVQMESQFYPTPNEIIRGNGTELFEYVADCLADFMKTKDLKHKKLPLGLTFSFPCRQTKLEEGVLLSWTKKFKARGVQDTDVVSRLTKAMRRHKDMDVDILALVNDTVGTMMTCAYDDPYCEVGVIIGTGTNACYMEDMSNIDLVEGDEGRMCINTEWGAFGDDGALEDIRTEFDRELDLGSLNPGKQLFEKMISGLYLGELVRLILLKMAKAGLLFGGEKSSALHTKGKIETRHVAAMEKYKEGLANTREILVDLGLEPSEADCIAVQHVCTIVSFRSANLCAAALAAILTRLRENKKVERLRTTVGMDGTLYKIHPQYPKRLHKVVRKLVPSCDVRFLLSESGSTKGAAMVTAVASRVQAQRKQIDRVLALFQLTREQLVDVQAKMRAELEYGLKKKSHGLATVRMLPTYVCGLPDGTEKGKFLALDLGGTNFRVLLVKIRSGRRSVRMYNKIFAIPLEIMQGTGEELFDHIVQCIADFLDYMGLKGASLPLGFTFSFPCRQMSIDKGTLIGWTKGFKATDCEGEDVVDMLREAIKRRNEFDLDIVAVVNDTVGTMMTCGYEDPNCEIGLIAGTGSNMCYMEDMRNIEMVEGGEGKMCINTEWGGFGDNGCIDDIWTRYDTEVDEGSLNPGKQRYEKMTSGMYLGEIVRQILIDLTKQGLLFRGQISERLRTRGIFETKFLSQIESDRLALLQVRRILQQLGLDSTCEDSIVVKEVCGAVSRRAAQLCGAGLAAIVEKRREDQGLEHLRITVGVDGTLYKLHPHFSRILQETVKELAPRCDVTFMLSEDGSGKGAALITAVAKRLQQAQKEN

[7] = inhibitors of SNCA 5'UTR-driven reporter translation, confirmation, H4 neuroglioma cells, luminescence (AID 1988); assay type: functional, cell-based
[8] = luciferase reporter signal reduction – luminescence, H4-C neuroglioblastoma cells, dose response (AID 2458); assay type: functional, cell-based;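 further: H4 neuroglioblastoma cells stably carrying a luciferase reporter gene fusion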
[9] = inhibitors of SNCA 5'UTR-driven translation, confirmation, luminescence, H4 neuroglioblastoma cells, dose confirmation (AID 2454); assay type: functional, cell-based;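 further: H4 neuroglioblastoma cells carrying an alpha-synuclein 5'UTR luciferase reporter; potency for inhibition of the luciferase signal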
[10] = cytotoxicity in HEK-293T cells, dose response, cytotoxicity control for TCR NF-kB inhibitor project, luminescence, T-cell screen hits (AID 489026); assay type: functional, cell-based;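 further: cells exposed to compound about 14 hours before the viability readout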
[11] = Luminescence Cell-Based Dose Response HTS to Identify Inhibitors of 5'UTR Stem-Loop Driven Prion Protein mRNA Translation in H4 Neuroglioblastoma Cells. [Related pubchem assays: 1827 (Project Summary), 1813 (Primary HTS)]; assay type: functional
[12] = Luminescence-based counterscreen assay for KLF5 inhibitors: dose response cell-based high throughput screening assay to identify cytotoxic compounds using the IEC-6 intestinal epithelial cell line. [Related pubchem assays: 1700 (Primary screen.), 1834 (Confirmation screen.), 1858 (Summary AID.), 1905 (Counterscreen.)]; assay type: functional
[13] = target: T5, Histone-lysine N-methyltransferase NSD2 (Homo sapiens, UniProt O96028); assay type: biochemical
T5 sequence (O96028 whole entry): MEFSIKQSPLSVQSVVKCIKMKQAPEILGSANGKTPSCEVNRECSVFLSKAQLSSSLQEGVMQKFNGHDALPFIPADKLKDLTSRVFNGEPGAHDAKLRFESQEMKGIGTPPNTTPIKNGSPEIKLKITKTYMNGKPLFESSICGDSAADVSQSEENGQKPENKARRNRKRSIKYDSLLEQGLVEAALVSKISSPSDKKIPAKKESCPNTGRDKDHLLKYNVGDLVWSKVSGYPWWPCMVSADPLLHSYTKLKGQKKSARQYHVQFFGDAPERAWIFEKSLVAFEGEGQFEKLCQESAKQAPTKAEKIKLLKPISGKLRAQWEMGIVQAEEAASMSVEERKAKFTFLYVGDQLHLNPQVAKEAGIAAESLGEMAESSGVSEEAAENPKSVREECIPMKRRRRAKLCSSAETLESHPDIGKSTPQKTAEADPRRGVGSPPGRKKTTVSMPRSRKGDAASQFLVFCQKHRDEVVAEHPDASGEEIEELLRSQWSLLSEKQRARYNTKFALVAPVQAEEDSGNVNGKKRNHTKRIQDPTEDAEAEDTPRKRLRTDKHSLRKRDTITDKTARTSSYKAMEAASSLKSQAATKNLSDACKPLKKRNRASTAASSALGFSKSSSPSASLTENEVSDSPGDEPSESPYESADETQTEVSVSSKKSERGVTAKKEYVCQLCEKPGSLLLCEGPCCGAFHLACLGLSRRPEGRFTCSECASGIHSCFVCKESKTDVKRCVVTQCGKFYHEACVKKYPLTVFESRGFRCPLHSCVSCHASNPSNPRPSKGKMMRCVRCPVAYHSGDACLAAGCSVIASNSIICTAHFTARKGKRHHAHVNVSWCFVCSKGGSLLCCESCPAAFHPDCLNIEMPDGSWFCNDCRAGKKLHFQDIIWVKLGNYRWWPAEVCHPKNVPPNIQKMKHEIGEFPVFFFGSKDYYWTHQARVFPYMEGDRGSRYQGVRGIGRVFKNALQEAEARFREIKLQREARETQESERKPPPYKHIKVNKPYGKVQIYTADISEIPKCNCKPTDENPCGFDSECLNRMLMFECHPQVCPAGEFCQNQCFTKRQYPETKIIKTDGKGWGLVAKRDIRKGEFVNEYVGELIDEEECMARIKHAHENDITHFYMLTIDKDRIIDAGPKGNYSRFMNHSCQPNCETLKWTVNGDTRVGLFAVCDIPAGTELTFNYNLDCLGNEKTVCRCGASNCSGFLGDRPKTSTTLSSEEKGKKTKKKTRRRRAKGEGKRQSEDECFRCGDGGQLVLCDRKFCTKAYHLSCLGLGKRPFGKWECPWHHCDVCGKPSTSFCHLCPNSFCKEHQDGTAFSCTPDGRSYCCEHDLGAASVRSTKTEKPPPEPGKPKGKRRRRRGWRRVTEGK

[14] = target: Heat shock protein HSP 90-alpha (Homo sapiens, UniProt P07900); experiment: Luminescence-based dose response biochemical high throughput screening assay for inhibitors of the Heat Shock Protein 90 (HSP90). [Related pubchem assays: 1831 (Summary AID.), 1846 (Confirmation screen.), 1789 (Primary screen.)]
[15] = inhibitors of firefly luciferase expression or activity, dose response, H4 neuroglioma cells, luminescence (AID 1990); assay type: functional, cell-based
cells = assay type: functional, cell-based
[16] = target: DNA dC->dU-editing enzyme APOBEC-3G (Homo sapiens, UniProt Q9HC16); assay type: functional;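 further: Dose-response counterscreen measuring inhibition of APOBEC3G DNA deaminase activity, run while confirming APOBEC3A inhibitors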
[17] = target: Polyadenylate-binding protein 1 (Homo sapiens, UniProt P11940); experiment: PABP poly(A) RNA binding inhibitors, primary screen, biochemical, fluorescence polarization, uHTS (AID 2014)
[18] = target: Eukaryotic translation initiation factor 4H (Homo sapiens, UniProt Q15056); experiment: human eIF4H binding inhibitors, primary screen, translation initiation inhibitor project, biochemical, uHTS, fluorescence polarization (AID 2012)
[19] = target: DNA dC->dU-editing enzyme APOBEC-3A (Homo sapiens, UniProt P31941); experiment: Dose Response confirmation of small molecule APOBEC3A DNA Deaminase Inhibitors via a fluorescence-based single-stranded DNA deaminase assay. [Related pubchem assays (depositor defined):AID493011, AID493024]; assay type: functional
Vasopressin V1a receptor = Vasopressin V1a receptor (Homo sapiens, UniProt P37288); experiment: Counterscreen for Oxytocin Receptor (OXTR) agonists: Fluorescence-based cell-based high throughput dose response assay to identify agonists of the vasopressin 1 receptor (V1R). [Related pubchem assays: 2435 (Primary screen (OXTR agonists in singlicate)), 434991 (Counterscreen (V1R agonists in triplicate)), 2482 (Summary (OXTR agonists)) …; assay type: functional
Oxytocin receptor = Oxytocin receptor (Homo sapiens, UniProt P30559); experiment: Fluorescence-based cell-based high throughput dose response assay for agonists of the Oxytocin Receptor (OXTR). [Related pubchem assays: 2435 (Primary screen (OXTR agonists in singlicate)), 434991 (Counterscreen (V1R agonists in triplicate)), 2482 (Summary (OXTR agonists)), 434963 (Confirmation screen (OXTR agonists in triplicate))]; assay type: functional
Cytochrome P450 2C9 = Cytochrome P450 2C9 (Homo sapiens, UniProt P11712); conditions: Potency
Chain of Cytochrome P450 2C9 (P11712 whole entry): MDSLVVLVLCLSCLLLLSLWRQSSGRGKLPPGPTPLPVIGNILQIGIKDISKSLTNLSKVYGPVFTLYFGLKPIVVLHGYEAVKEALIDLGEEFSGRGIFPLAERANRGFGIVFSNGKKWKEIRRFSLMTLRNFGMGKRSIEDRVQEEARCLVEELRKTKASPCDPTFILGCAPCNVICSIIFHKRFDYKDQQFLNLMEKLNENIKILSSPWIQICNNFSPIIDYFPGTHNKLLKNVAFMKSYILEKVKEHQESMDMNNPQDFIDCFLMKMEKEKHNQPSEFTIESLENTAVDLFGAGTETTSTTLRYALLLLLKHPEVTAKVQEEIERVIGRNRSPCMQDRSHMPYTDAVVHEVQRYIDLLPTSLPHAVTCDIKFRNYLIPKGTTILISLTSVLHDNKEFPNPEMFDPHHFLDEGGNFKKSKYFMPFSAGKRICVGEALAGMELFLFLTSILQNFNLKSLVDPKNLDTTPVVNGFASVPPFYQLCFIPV

T1 sequence (P51452 whole entry): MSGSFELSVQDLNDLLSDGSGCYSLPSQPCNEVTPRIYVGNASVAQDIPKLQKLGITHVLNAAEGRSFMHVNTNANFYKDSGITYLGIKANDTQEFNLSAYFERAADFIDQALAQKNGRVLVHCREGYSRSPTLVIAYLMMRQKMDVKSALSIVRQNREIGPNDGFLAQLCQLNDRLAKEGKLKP
Chain of Procathepsin L (P07711 whole entry): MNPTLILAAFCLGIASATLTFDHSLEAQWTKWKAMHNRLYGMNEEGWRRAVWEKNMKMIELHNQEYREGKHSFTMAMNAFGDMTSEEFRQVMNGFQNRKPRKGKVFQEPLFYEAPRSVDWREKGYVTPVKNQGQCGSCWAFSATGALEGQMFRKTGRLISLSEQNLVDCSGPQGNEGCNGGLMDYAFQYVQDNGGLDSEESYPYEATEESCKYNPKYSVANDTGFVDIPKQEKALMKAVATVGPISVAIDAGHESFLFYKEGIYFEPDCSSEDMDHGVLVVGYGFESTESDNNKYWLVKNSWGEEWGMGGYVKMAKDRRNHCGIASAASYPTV
Chain of Polyadenylate-binding protein 1 (P11940 whole entry): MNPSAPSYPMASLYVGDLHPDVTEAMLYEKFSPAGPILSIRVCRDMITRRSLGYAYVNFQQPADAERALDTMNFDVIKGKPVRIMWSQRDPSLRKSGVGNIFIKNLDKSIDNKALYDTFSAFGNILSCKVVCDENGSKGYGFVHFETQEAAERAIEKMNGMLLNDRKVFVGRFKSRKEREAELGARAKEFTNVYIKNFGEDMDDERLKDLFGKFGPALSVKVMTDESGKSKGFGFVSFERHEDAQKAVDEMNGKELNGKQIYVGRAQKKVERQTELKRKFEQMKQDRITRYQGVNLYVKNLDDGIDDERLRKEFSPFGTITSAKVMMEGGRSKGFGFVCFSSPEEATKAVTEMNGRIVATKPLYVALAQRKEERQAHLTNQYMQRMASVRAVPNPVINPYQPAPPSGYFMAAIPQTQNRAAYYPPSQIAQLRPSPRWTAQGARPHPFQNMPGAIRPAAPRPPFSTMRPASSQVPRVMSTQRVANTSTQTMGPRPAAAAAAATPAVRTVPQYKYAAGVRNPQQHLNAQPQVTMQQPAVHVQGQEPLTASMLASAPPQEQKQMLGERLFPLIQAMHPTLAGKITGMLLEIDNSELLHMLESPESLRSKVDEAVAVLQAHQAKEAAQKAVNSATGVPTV
Chain of DNA dC->dU-editing enzyme APOBEC-3A (P31941 whole entry): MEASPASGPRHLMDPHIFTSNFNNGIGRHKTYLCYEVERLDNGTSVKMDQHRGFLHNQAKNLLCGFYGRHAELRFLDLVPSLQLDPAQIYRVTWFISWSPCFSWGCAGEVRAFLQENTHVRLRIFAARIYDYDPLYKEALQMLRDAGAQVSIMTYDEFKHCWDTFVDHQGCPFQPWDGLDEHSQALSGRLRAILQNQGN
Chain of Aspartyl aminopeptidase (Q8I2J3 whole entry): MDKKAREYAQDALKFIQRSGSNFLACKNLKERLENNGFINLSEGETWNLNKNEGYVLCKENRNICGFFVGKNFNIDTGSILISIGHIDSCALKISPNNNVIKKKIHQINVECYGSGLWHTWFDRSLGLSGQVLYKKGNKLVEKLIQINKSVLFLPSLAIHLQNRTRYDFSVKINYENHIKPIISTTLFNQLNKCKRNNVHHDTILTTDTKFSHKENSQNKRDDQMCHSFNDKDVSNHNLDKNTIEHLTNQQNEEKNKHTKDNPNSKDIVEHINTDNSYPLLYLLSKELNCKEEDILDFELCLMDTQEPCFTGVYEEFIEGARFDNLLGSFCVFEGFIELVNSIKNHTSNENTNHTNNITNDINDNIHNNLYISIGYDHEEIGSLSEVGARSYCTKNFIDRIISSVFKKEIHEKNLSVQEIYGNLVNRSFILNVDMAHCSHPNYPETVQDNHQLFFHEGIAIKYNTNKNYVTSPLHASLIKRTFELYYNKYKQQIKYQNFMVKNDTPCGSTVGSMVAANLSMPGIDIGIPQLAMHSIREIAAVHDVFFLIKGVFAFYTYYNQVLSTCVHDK
Chain of DNA dC->dU-editing enzyme APOBEC-3G (Q9HC16 whole entry): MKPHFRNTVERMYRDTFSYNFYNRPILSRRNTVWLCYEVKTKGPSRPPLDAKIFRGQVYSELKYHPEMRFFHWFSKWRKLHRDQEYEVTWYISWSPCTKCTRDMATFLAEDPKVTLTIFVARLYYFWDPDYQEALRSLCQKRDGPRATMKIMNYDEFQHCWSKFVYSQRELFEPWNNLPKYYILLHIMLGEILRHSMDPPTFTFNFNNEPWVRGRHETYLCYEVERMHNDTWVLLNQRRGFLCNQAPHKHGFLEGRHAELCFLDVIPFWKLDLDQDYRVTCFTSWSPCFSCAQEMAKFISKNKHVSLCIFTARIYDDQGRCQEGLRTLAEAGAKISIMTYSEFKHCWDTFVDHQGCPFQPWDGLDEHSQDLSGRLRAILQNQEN
Chain of Vasopressin V1a receptor (P37288 whole entry): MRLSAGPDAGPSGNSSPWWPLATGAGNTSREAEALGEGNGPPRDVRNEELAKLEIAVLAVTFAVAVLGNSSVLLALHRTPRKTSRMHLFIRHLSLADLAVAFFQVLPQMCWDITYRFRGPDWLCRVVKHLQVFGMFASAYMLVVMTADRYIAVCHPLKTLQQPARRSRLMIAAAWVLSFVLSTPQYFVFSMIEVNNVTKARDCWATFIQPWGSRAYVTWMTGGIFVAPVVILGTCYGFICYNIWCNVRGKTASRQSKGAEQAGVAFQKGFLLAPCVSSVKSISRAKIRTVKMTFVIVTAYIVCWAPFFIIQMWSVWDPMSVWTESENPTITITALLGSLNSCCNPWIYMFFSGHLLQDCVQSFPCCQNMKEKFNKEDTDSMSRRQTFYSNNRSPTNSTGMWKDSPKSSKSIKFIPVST
Chain of Dual specificity protein phosphatase 6 (Q64346 whole entry): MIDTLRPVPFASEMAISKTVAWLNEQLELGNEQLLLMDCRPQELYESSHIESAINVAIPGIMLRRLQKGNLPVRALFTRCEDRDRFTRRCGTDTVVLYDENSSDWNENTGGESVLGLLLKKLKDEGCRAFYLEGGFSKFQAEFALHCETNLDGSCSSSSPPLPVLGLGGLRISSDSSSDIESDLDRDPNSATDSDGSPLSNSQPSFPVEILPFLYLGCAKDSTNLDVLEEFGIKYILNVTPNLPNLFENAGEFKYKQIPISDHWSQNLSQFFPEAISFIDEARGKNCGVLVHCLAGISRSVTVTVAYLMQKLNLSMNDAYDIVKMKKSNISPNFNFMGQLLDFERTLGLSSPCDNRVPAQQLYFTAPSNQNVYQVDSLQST
Chain of Oxytocin receptor (P30559 whole entry): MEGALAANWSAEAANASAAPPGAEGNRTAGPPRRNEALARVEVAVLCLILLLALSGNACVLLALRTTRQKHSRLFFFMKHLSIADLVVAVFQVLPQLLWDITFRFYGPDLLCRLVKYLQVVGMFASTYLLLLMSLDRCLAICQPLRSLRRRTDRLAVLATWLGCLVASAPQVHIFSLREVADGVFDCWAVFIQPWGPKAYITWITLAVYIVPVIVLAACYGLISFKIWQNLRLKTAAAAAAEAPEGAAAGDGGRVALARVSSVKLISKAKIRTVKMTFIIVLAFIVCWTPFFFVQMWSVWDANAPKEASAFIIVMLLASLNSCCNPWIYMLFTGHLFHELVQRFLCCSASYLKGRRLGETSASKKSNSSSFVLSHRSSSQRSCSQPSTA

CCC(C)c1ccc(O)c(N)c1 (stereo unspecified)
IC50 (Procathepsin L): > 59.6 µM (not active)
IC50 (Aspartyl aminopeptidase): 2.25 µM (active)

COc1cc(C(S)=NC2CCCCC2)ccc1O
IC50 [1]: 22.5 µM (active)
IC50 [2]: 32.6 µM (active)
IC50 [3]: > 100 µM (inactive)
IC50 [4]: 2.82 µM (active)
IC50 [5]: 3.4 µM (active)
IC50 [6]: > 100 µM (inactive)

COC1(NS(=O)(=O)c2ccc(Br)cc2)C(C)=CC(=O)C=C1C
IC50 (Hexokinase HKDC1): > 80 µM (inactive)

COc1cc(/C=C/[N+](=O)[O-])ccc1OCc1cccc(C(=O)O)c1
EC50 [7]: 0.161 µM (active)
EC50 [8]: 0.99 µM (active)
EC50 [9]: 0.937 µM (active)
IC50 [10]: > 80 µM (inactive)
EC50 [11]: < 0.1 µM (active)
IC50 [12]: > 39.8 µM (not active)
AC50 [13]: 11.9 µM (active)
IC50 [14]: 7.32 µM (active)
EC50 [15]: 2.43 µM (inconclusive)
EC50 (cells): > 12 µM (inconclusive)

Cn1c(SCC(=O)N2CCOCC2)nnc1-c1cccc(NC(=O)c2ccccc2)c1
IC50 [16]: 3.37 µM (active)
IC50 [17]: 2.81 µM (active)
IC50 [18]: > 100 µM (inactive)
IC50 [19]: 2.62 µM (active)

COc1ccc(C2SCCN2C(S)=Nc2cccc(Cl)c2)cc1 (stereo unspecified)
EC50 (Vasopressin V1a receptor): > 29.9 µM (not active)
EC50 (Oxytocin receptor): > 29.9 µM (not active)

c1csc(CNc2ncnc3ccc(-c4ccc5c(c4)OCO5)cc23)c1
AC50 (Cytochrome P450 2C9): 0.794 µM (inconclusive)
